The source made the active and inactive calls. No rule for the calls is given here.

In the assay the target is D(2) dopamine receptor (Homo sapiens) (UniProt P14416). The assay can be described thus: human DRD2 long isoform antagonists – cell-based, D2L isoform, counter-screen for D4 antagonist project, confirmation (AID 743377). The conditions noted are these: D2L-expressing cells, antagonist counterscreen, functional read-out.
D(2) dopamine receptor (Homo sapiens), sequence (P14416 whole entry, looked up, canonical isoform): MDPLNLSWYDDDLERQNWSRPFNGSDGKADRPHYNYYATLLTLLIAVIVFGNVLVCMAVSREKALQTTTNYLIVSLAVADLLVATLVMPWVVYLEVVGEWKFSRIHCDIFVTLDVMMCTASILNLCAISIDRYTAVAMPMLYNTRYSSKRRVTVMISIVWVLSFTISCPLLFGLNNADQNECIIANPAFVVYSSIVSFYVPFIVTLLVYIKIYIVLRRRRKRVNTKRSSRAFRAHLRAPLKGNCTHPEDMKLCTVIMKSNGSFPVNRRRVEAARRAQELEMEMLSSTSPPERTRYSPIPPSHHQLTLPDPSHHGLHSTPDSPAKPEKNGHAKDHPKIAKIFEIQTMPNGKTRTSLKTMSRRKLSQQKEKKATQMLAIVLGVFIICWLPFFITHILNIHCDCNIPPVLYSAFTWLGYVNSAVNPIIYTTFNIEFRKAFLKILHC

As to `Clc1ccc(CN2CCO[C@H](CCc3ccccc3)C2)cc1`, the IC50 was > 20 µM (inactive).

These data come from PubChem BioAssay AID743377 (Vanderbilt Specialized Chemistry Center, 2014).
